Where “and” joins values, the source holds several entries; their conditions need not be identical. Equal values may be shown once.
Experiments:
patients with HE = experiment: Retrospective chart review of 145 patients with HE, lactulose then rifaximin; format: in vivo, human
From the text: Total number of hospitalizations, duration of hospitalizations, HE endpoints, and cost of therapy were compared between the 2 treatment regimens.

subjects with HE = experiment: Treatment-emergent adverse events, second study; format: in vivo, human
From the text: At the time of this interim analysis, TEAEs were reported in 230 subjects (86.5%). The most common TEAEs (e.g., in ≥10% of total subjects) experienced by subjects were the following: peripheral edema (15.8%); urinary tract infection and nausea (12.8% each); and abdominal pain and ascites (10.5% each).
Treatment-emergent SAEs were experienced by 47.4% of subjects.

[1] = test system: breakthrough overt HE episode in subjects with HE; experiment: Breakthrough overt HE episodes, second study (open-label treatment extension); format: in vivo, human
Method: Unlike the first study, subjects were not required to withdraw from the study after experiencing a breakthrough overt HE episode.
Conn scores and asterixis grades were assessed during the course of the study.
Therefore, the incidence of breakthrough overt HE over time during rifaximin therapy was evaluated. Table 24 presents breakthrough overt HE episodes by total number of HE episodes during the course of the study.

[2] = test system: HE-caused hospitalization in subjects with HE; experiment: HE-caused hospitalization, first study; format: in vivo, human
From the text: FIG. 5 illustrates time to first HE-caused hospitalizations by treatment group in the first study. […] Note for FIG. 10, the survival distribution estimate on y-axis represents the proportion of subjects without HE-caused hospitalizations. Dashed line represents rifaximin group and solid line represents placebo group. Open circles and open triangles represent censored subjects. Subjects who discontinued prior to hospitalization were censored at the time of discontinuation.

clinical = settings: human, in vivo
[3] = test system: blood ammonia concentration in subjects with HE; experiment: Blood (venous) ammonia concentration, change from baseline, first study; format: in vivo, human; settings: ITT, change from baseline to end of treatment
Method: Venous blood samples (10 mL) were collected and ammonia concentrations were obtained by methods known in the art.
Mean values and mean changes from baseline in blood ammonia concentration and critical flicker frequency values were collected. Analyses of blood ammonia concentrations and critical flicker frequency values were based upon quantitative values (not qualitative grades). Treatment differences for mean change from baseline in these parameters was estimated using a mixed effects model with fixed effects for time and baseline value.
Table 22 summarizes changes from baseline to end of treatment in venous ammonia level by treatment group in the first study.

[4] = human, in vivo
[5] = test system: hospitalization in subjects with HE; experiment: Hospitalizations, second study; format: in vivo, human
From the text: Normalizing for subject exposure, this represents a hospitalization rate of 0.60 event/PEY. A total of 59 were hospitalized due HE episodes (e.g., HE-caused). Normalizing for subject exposure, this represents an HE-caused hospitalization rate of 0.29 event/PEY. […] All subjects were capable of worsening over time, and 24/266 subjects (9.0%) did so by 1 or 2 grades.

[6] = Continuing Rifaximin N = 70, second study
[7] = New Rifaximin N = 196, second study
[8] = Rifaximin N = 266 (all rifaximin), second study
[9] = first study placebo subjects crossed over to rifaximin in second study
[10] = second study, all rifaximin, up to 680 days
[11] = second study, continuing rifaximin group, up to 680 days
[12] = second study, new rifaximin group, up to 680 days

CO[C@H]1/C=C/O[C@@]2(C)Oc3c(C)c(O)c4c(O)c(c5c(nc6cc(C)ccn65)c4c3C2=O)NC(=O)/C(C)=C\C=C\[C@H](C)[C@H](O)[C@@H](C)[C@@H](O)[C@@H](C)[C@H](OC(C)=O)[C@@H]1C [Rifaximin]
patients with Conn scores of 3 or 4 at end of treatment period (patients with HE): 6% | hospitalizations (patients with HE; lactulose 30 mL twice daily then rifaximin 400 mg 3 times/day): 0.5 | subjects experiencing at least 1 TEAE judged to be severe (subjects with HE): 40.2% | subjects with treatment-emergent SAEs (subjects with HE): 47.4% | subjects with HE counted for the safety analyses (subjects with HE; 57 subjects): 21.4% | incidence of TEAEs considered related to study drug (subjects with HE; continuing rifaximin group): 7.1% | TEAE abdominal pain, subjects (subjects with HE; interim analysis): 10.5% | TEAE ascites, subjects (subjects with HE; interim analysis): 10.5% | TEAE nausea, subjects (subjects with HE; interim analysis): 12.8% | TEAE peripheral edema, subjects (subjects with HE; interim analysis): 15.8% | TEAE urinary tract infection, subjects (subjects with HE; interim analysis): 12.8% | subjects with TEAEs (subjects with HE; interim analysis, 230 subjects): 86.5% | incidence of TEAEs considered related to study drug (subjects with HE; new rifaximin group): 7.7% | Subjects with total number of HE episodes during the study: 1, % [1, 6]: (14.3) % | Subjects with total number of HE episodes during the study: 2, % [1, 6]: (8.6) % | Subjects with total number of HE episodes during the study: 4, % [1, 6]: (1.4) % | Subjects with total number of HE episodes during the study: 6, % [1, 6]: (1.4) % | Subjects with ≥1 breakthrough overt HE episode, % [1, 6]: (25.7) % | Subjects with total number of HE episodes during the study: 1, % [1, 7]: (17.3) % | Subjects with total number of HE episodes during the study: 2, % [1, 7]: (6.1) % | Subjects with total number of HE episodes during the study: 3, % [1, 7]: (2.0) % | Subjects with total number of HE episodes during the study: 4, % [1, 7]: (0.5) % | Subjects with total number of HE episodes during the study: 5, % [1, 7]: (0.5) % | Subjects with total number of HE episodes during the study: 10, % [1, 7]: (1.0) % | Subjects with ≥1 breakthrough overt HE episode, % [1, 7]: (27.6) % | Subjects with total number of HE episodes during the study: 1, value in parentheses [1, 8]: (16.5) 90 | Subjects with total number of HE episodes during the study: 2, value in parentheses [1, 8]: (6.8) 90 | Subjects with total number of HE episodes during the study: 3, value in parentheses [1, 8]: (1.5) 90 | Subjects with total number of HE episodes during the study: 4, value in parentheses [1, 8]: (0.8) 90 | Subjects with total number of HE episodes during the study: 5, value in parentheses [1, 8]: (0.4) 90 | Subjects with total number of HE episodes during the study: 6, value in parentheses [1, 8]: (0.4) 90 | Subjects with total number of HE episodes during the study: 10, value in parentheses [1, 8]: (0.8) 90 | Subjects with ≥1 breakthrough overt HE episode, value in parentheses [1, 8]: (27.1) 90 | reduction in risk of breakthrough overt HE during rifaximin treatment vs prior placebo experience [1, 9]: 70% | subjects with breakthrough overt HE during rifaximin treatment (of 82) [1, 9]: 15 | subjects with 3 or more breakthrough HE episodes ([1]; second study): Ten | proportion of subjects with breakthrough overt HE [1, 10]: 27.1% | subjects with breakthrough overt HE (of 266) [1, 10]: 72 | proportion of subjects with breakthrough overt HE [1, 11]: 25.7% | subjects with breakthrough overt HE (of 70) [1, 11]: 18 | proportion of subjects with breakthrough overt HE [1, 12]: 27.6% | subjects with breakthrough overt HE (of 196) [1, 12]: 54 | reduction in risk of HE-caused hospitalization compared with placebo ([2]; 6-month treatment period): 56% | HE-caused hospitalization rate ([2]; rifaximin group): 0.30 events/PEY | subjects with HE-caused hospitalizations (of 140) ([2]; rifaximin group): 15 | Cmax (clinical): 52.2 ng/mL and 66.4 nM | Mean (SD) change in ammonia level [3]: −5.7 (46.77) μg/dL | highest anticipated free plasma exposure [4]: 0.03 µM | all cause hospitalization rate [5]: 0.60 event/PEY | subjects hospitalized due HE episodes (HE-caused) [5]: 59 | subjects hospitalized for any cause (of 266) ([5]; all rifaximin): 133 | subjects hospitalized for any cause ([5]; continuing rifaximin group): 35 | subjects hospitalized for any cause ([5]; new rifaximin group): 98

Source: patent publication US12697326B2, “Methods of treating hepatic encephalopathy” (SALIX PHARMACEUTICALS, INC., priority 2008, dated 2026)
